Source: patent US20160281125A1, “ANTIMICROBIAL COMPOUND SUSCEPTIBILITY TEST” (priority 2013, published 2016)

Assays:
E. clo 13047 = test: Selective lysis test, OD600 turbidity (Example 1); type: cell-based, Enterobacter cloacae
Experimental: (§1) An isolated colony from an overnight Tryptocase Soy Agar (TSA) plate of each bacterial strain was suspended in 1 ml Tryptocasc Soy Broth (TSB) in a 5 ml BD polystyrene round bottom tube. TSB cultures were incubated shaking at 37° C. overnight. Ten of the overnight culture was inoculated into lml TSB and incubated shaking at 37° C. for three hours. Two […] aliquots of each log-phase culture were then transferred to two 2 ml Eppendorf microcentrifuge tubes. One tube contained 5000 of Normal Saline (BD); the second tube contained 5000 Normal Saline with meropenem at 10 μg/ml (final concentration of meropenem of 6.67 10 μg/ml). Tubes were inverted and then incubated at 37° C. stagnant for thirty minutes. Then […] of lysis buffer (0.5% SDS in PSB) (final concentration of SDS of 0.125%) was added to each tube and the tubes were vortexed for 5 seconds. Post incubation, all tubes were spun at 10000 G for 5 minutes. Supernatant was decanted and the pellet resuspended in Normal Saline. Tubes were vortexed again. OD600 was measured using Eppendorf uvettes in a spectrophotometer. The delta between the OD600 of the normal saline control and the OD600 for the test sample exposed to meropenem in normal saline was used to determine susceptibility of the bacterial strain to meropenem.

E. coli 23848 = test: Selective lysis test, OD600 turbidity (Example 1); type: cell-based, Escherichia coli
Experimental: as §1

E. coli 25922 = test: Selective lysis test, OD600 turbidity (Example 1); type: cell-based, Escherichia coli
Experimental: as §1

E. coli 35218 = test: Selective lysis test, OD600 turbidity (Example 1); type: cell-based, Escherichia coli
Experimental: as §1

E. coli 51422 = test: Selective lysis test, OD600 turbidity (Example 1); type: cell-based, Escherichia coli
Experimental: as §1

E. coli ESBL 790 = test: Selective lysis test, OD600 turbidity (Example 1); type: cell-based, Escherichia coli
Experimental: as §1

E. coli ESBL Baa197 = test: Selective lysis test, OD600 turbidity (Example 1); type: cell-based, Escherichia coli; settings: for % Change: OD600 vs control without meropenem
Experimental: as §1

E. coli JM109 = test: Selective lysis test, OD600 turbidity (Example 1); type: cell-based, Escherichia coli
Experimental: as §1

K. oxy 43086 = test: Selective lysis test, OD600 turbidity (Example 1); type: cell-based, Klebsiella oxytoca
Experimental: as §1

K. pneumo KPC 12213 = test: Selective lysis test, OD600 turbidity (Example 1); type: cell-based, Klebsiella pneumoniae
Experimental: as §1
(§2) The tested resistant strains were Klebsiella pneumoniae carbapenemase (KPC)-producing bacteria (abbreviated “KPC”), KPC-producing Klebsiella oxytoca (abbreviated “KPC K. oxy), and Klebsiella pneumoniae producing Metallo-beta-lactamase-1 (NDM-1) (abbreviated “NDM”).

K. pneumo KPC 41217 = test: Selective lysis test, OD600 turbidity (Example 1); type: cell-based, Klebsiella pneumoniae
Experimental: as §1, §2

K. pneumo KPC 4121 = test: Selective lysis test, OD600 turbidity (Example 1); type: cell-based, Klebsiella pneumoniae
Experimental: as §1, §2

K. pneumo KPC 65707 = test: Selective lysis test, OD600 turbidity (Example 1); type: cell-based, Klebsiella pneumoniae
Experimental: as §1, §2

K. pneumo KPC KPC12 = test: Selective lysis test, OD600 turbidity (Example 1); type: cell-based, Klebsiella pneumoniae
Experimental: as §1, §2

K. pneumo NDM 2146 = test: Selective lysis test, OD600 turbidity (Example 1); type: cell-based, Klebsiella pneumoniae
Experimental: as §1, §2

E. coli strain 35218 = test: Carbapenem test, Triton fixation buffer and BacUni QuickFISH staining (Example 4); type: cell-based; settings: FIG. 9; E. coli 35218; 10 μg/ml
Experimental: (§3) An isolated colony from an overnight Tryptocase Soy Agar (TSA) plate for each bacteria was suspended in 1 ml Tryptocase Soy Broth (TSB) in a 5 ml BD polystyrene round bottom tube. TSB cultures were incubated at 37° C. for 1.5 hours shaking. […] of each stationary-phase culture were transferred to 2 ml Eppendorf microcentrifuge tubes containing 500 μl of Normal Saline (BD); or 500 μl Normal Saline with imipenem, ertapenem, or meropenem at a concentration of […], […], or 40 μg/ml (26.67 μg/ml final concentration). Tubes were inverted then incubated at 37° C. stagnant for thirty minutes. Then 10 μl from each tube was pipetted onto plain glass slide on a 55° C. heat block, followed by 25 μl fixation buffer (0.5% T×100, 100 mM Tris pH 9, 24% Ethanol, and 10 mM NaCl); slide is incubated until sample is dry. Ten μl of BacUni QuickFISH hybridization buffer was added to each slide followed by a 22×22 mm coverslip. The slide was then incubated at 55° C. for 15 minutes. The slides were viewed on a fluorescence microscope 60× oil immersion on Dual TxR/FITC. Images were taken with a 1 second exposure.
(§4) The control fixation in this experiment has all the same components, except no Triton X-100. This was done to assess whether the selective lysis step is required to resolve a difference between susceptible and resistant bacteria.

[1] = system: K. pneumoniae strain 13882; test: as above; type: cell-based; settings: K. pneumoniae 13882
Experimental: as §3, §4

[2] = system: K. pneumoniae strain BAA2146 NDM+; test: as above; type: cell-based
Experimental: as §3, §4

[3] = OD600 vs control without meropenem
[4] = meropenem 10 μg/ml, 30 min, SDS lysis buffer + vortex

## C[C@@H](O)[C@H]1C(=O)N2C(C(=O)O)=C(S[C@@H]3CN[C@H](C(=O)N(C)C)C3)[C@H](C)[C@H]12 [meropenem]
E. clo 13047
  R or S: S (a percentage change of greater than about 85% indicates a strain is susceptible)
E. clo 13047; [3]
  % Change: 95%
E. clo 13047; [4]
  Mero OD600: 0.06
E. coli 23848
  R or S: S (a percentage change of greater than about 85% indicates a strain is susceptible)
E. coli 23848; [3]
  % Change: 97%
E. coli 23848; [4]
  Mero OD600: 0.021
E. coli 25922
  R or S: S (a percentage change of greater than about 85% indicates a strain is susceptible)
E. coli 25922; [3]
  % Change: 97%
E. coli 25922; [4]
  Mero OD600: 0.064
E. coli 35218
  R or S: S (a percentage change of greater than about 85% indicates a strain is susceptible)
E. coli 35218; [3]
  % Change: 90%
E. coli 35218; [4]
  Mero OD600: 0.1
E. coli 51422
  R or S: S (a percentage change of greater than about 85% indicates a strain is susceptible)
E. coli 51422; [3]
  % Change: 98%
E. coli 51422; [4]
  Mero OD600: 0.031
E. coli ESBL 790
  R or S: S (a percentage change of greater than about 85% indicates a strain is susceptible)
E. coli ESBL 790; [3]
  % Change: 87%
E. coli ESBL 790; [4]
  Mero OD600: 0.126
E. coli ESBL Baa197
  R or S: S (a percentage change of greater than about 85% indicates a strain is susceptible)
  % Change: 74%
E. coli ESBL Baa197; listed as Mero
  % Change: 74%
E. coli ESBL Baa197; [4]
  Mero OD600: 0.236
E. coli JM109
  R or S: S (a percentage change of greater than about 85% indicates a strain is susceptible)
E. coli JM109; [3]
  % Change: 88%
E. coli JM109; [4]
  Mero OD600: 0.079
K. oxy 43086
  R or S: S (a percentage change of greater than about 85% indicates a strain is susceptible)
K. oxy 43086; [3]
  % Change: 99%
K. oxy 43086; [4]
  Mero OD600: 0.02
K. pneumo KPC 12213
  R or S: R
K. pneumo KPC 12213; [3]
  % Change: −5%
K. pneumo KPC 12213; [4]
  Mero OD600: 1.454
K. pneumo KPC 41217
  R or S: R
K. pneumo KPC 41217; [3]
  % Change: 5%
K. pneumo KPC 41217; [4]
  Mero OD600: 1.764
K. pneumo KPC 4121
  R or S: R
K. pneumo KPC 4121; [3]
  % Change: −3%
K. pneumo KPC 4121; [4]
  Mero OD600: 1.734
K. pneumo KPC 65707
  R or S: R
K. pneumo KPC 65707; [3]
  % Change: 12%
K. pneumo KPC 65707; [4]
  Mero OD600: 1.887
K. pneumo KPC KPC12
  R or S: R
K. pneumo KPC KPC12; [3]
  % Change: 2%
K. pneumo KPC KPC12; [4]
  Mero OD600: 1.844
K. pneumo NDM 2146
  R or S: R
K. pneumo NDM 2146; [3]
  % Change: 18%
K. pneumo NDM 2146; [4]
  Mero OD600: 1.576
E. coli strain 35218
  test result (susceptibility or resistance) by BacUni QuickFISH staining: detect susceptibility
[1]; FIG. 7, 10 μg/ml meropenem, fixation buffer with 0.5% Triton X-100
  BacUni QuickFISH stained intact cells after meropenem and fixation buffer: near complete absence of BacUni QuickFISH™ stained intact cells
[1]; FIG. 10, 10 μg/ml
  test result (susceptibility or resistance) by BacUni QuickFISH staining: detect susceptibility
[2]; FIG. 8, 10 μg/ml meropenem, fixation buffer with 0.5% Triton X-100
  BacUni QuickFISH stained intact cells after meropenem and fixation buffer: near complete absence of BacUni QuickFISH™ stained intact cells
[2]; FIG. 11, 10 μg/ml
  test result (susceptibility or resistance) by BacUni QuickFISH staining: detect resistance
